{"source": "patent US20190008810A1", "about": "“METHOD FOR PREVENTION, TREATMENT AND ALLEVIATION OF INFECTIOUS DISEASES AND DISORDERS” (REPLICON HEALTH OY, priority 2016, published 2019)", "key": {"[1]": {"test_system": "rat primary optic nerve astrocytes", "test": "Cell viability (MTT and LDH assays) of rat primary optic nerve astrocytes", "assay_type": "cell-based", "experimental": "For proving the efficacy of DGA Activation in reducing ROS in infectious disorders an in vitro study using rat primary optic nerve astrocytes has been conducted. […] As an important part of the study the cell viability was estimated 6 hours after tBHP administration by two methods, i.e. LDH and MTT assays. Cell viability was measured using the in-house MTT assay (of Experimentica Ltd., Finland) and CytoTox96 non-radioactive cytotoxicity assay (G1780, Promega) in response to oxidative stress primary optic nerve astrocytes. The production of reactive oxygen species (ROS) was measured using CellROX Green (Invitrogen) and isolate RNA in RNALater solution (Ambion). Prior study preparations to find suitable tBHP concentration: The astrocytes where seeded at 5000 cells per well and allowed to grow for 48 hrs to mimic the study. On day 2 the medium was removed and the cells were exposed to a dose response range of tBHP in fresh medium for 6 hrs. The MTT and LDH assay were performed to assess cell survival using the Victor microplate reader. The raw data was given to patent applicant for assessment. […] After 24 hrs the compounds were removed, and readded with new medium for 1 hr, prior to the administration of 85 μM tBHP (FIG. 3c). […]"}, "CRP": {"test_system": "CRP", "test": "Blood CRP in healthy mice, 4-day test", "assay_type": "in vivo", "settings": "65 mg/kg/day in chow, 4 days, N=8; pairwise one-sided t-test p-value=0.04", "experimental": "In this Example, CRP results from 3 separate preclinical tests are presented and analyzed. First 4-day CRP test was conducted with 8 healthy mice using individuals as their own controls. Second 7-day CRP test was conducted in discontinuous disease model. And third also 7-day CRP test was conducted in continuous disease model. CRP present in mouse serum samples were analyzed using mouse CRP ELISA kit (GWB-3B960E, Genway Biotech Inc.). All blood samples were collected at the same time of the day.\nFor evaluating possible effect of the DGA Activation in health, a 4-day test with healthy mice in Charles River Labs, Kuopio test facilities were conducted. In this test (prior initiation of the MPTP -model) the DGA was mixed into chow at the concentration of 65 mg/kg/day."}, "[2]": {"test_system": "IPA mice (conjunctival epithelium, lacrimal gland, goblet cells)", "test": "Intensified pathological attack (IPA) dry eye model in mice, Example 1a", "assay_type": "in vivo", "settings": "for decrease in the thickening of the conjunctiva compared to relevant control: 7-day IPA, statistically significant", "experimental": "In this experiment, intensified pathological attacks towards the eye epithelium is used as a disease model for intensified infectious pressure. The protection of the DGA Activation is measured by inflammatory markers. Because the conjunctival epithelium faces outside environment, the conjunctiva was chosen as one important biomarker. In the following this dry eye disease (also known as keratoconjunctivitis sicca) model experiment is called as the intensified pathological attack model or IPA-model.\nAll animal experiments were carried out according to the Association for Research in Vision and Ophthalmology and the National Institute of Health (NIH) guidelines for the care and use of laboratory animals. The intensified pathological attack model (IPA-model) was induced to naïve seven-to-ten-week-old C57B1/B6J mice obtained from the vivarium at the University of Eastern Finland. In the experiment 4 cohorts of mice were tested, naïve wild-type mice with IPA (n=5), and IPA mice treated topically with either vehicle (n=5) or (topical) DGA (n=5), and additionally IPA treated mice with orally administered DGA with topical vehicle treatment (n=5). IPA was induced by a combination of scopolamine and exposure to a controlled adverse environment (low humidity, high temperature and high airflow for a period of 7 days) in the IPA-mice system. More detailed treatment and administrations were as follows: Group 1: Non-treated IPA mice, Group 2: IPA mice (topical application of PBS to one eye, the contralateral eye served as control), Group 3: IPA mice topical treatment with DGA (aqueous formulation to one eye, contralateral eye served as control), Group 4: IPA mice—systemic treatment with DGA (ad libitum with chow; topical application of PBS to one eye, the contralateral eye served as control).\nThe DGA Activation was induced be D-glyceric acid (in its calcium salt form). In the systemic administration, the DGA was mixed into chow ad libitum at the concentration of: 1) 65 mg/kg/day for the first 4 days, and at day 5 at the concentration of 130 mg/kg/day prior the dry-eye induction; 2) thereafter the concentration was 130 mg/kg/day for the whole follow-up period of 7 days. In the topical treatment, the DGA was administered topically, as aqueous formulation in PBS. […]\nTear volume was measured for groups 3 and 4 and later comparison results for group 2 were received. […] In addition, animals were monitored daily for general health status. The lacrimal glands were embedded into paraffin, sectioned, stained and analyzed for possible pathology."}, "[3]": {"test": "4-day healthy human nutritional test, blood bilirubin", "assay_type": "in vivo", "settings": "5-6 mg/kg/twice a day", "experimental": "S4 had already participated in 4-day healthy volunteer test with the DGA Activation. In that earlier non-acute DGA dosing experiment the last dose of D-glyceric acid mixed into water was received previous night, i.e. 10-12 hours before the blood test. In this test the positive effects of the DGA Activation in health/subclinical stress were observed. […] This was the case for all tested subjects including S1 in Examples 1b-1d (see Table 1e below)."}}, "data": [{"smiles": "O=C(O)[C@H](O)CO", "note": "[DGA, D-glyceric acid]", "values": [{"measurement": "cell viability after tBHP administration", "setting": "[1]; 85 μM tBHP, 6 hrs", "result": "clearly higher"}, {"measurement": "cell viability compared to 0-controls", "setting": "[1]; in health (0 μM tBHP) and in disease state (85 μM tBHP)", "result": "increases in both"}, {"measurement": "blood CRP vs own starting level", "setting": "CRP", "result": "overall decline in CRP was statistically significant"}, {"measurement": "number of goblet cells vs 0-controls", "setting": "[2]; DGA activation groups vs 0-controls", "result": "No meaningful differences"}, {"measurement": "lacrimal gland pathology (inflammation)", "setting": "[2]; systemic (group 4) vs placebo 0-control", "result": "reduces inflammation statistically significantly"}, {"measurement": "decrease in the thickening of the conjunctiva compared to relevant control", "setting": "[2]; systemic, mixed with chow 130 mg/kg/day", "result": "~20", "unit": "%"}, {"measurement": "decrease in the thickening of the conjunctiva compared to relevant control", "setting": "[2]; topical eye drops 30 μg/ml, 5 μL 4× daily", "result": "~20", "unit": "%"}, {"measurement": "S-Bil-Kj, 4 day change from zero control", "setting": "[3]; subject S1", "result": "−17.4", "unit": "%"}, {"measurement": "S-Bil, 4 day change from zero control", "setting": "[3]; subject S1, fasting blood, non-acute", "result": "−19.1", "unit": "%"}, {"measurement": "S-Bil, 4 day change from zero control", "setting": "[3]; subject S2", "result": "−22.8", "unit": "%"}, {"measurement": "S-Bil-Kj, 4 day change from zero control", "setting": "[3]; subject S2", "result": "−23.3", "unit": "%"}, {"measurement": "S-Bil, 4 day change from zero control", "setting": "[3]; subject S3", "result": "−58.1", "unit": "%"}, {"measurement": "S-Bil-Kj, 4 day change from zero control", "setting": "[3]; subject S3", "result": "−58.4", "unit": "%"}, {"measurement": "S-Bil, 4 day change from zero control", "setting": "[3]; subject S4", "result": "−12.6", "unit": "%"}, {"measurement": "S-Bil-Kj, 4 day change from zero control", "setting": "[3]; subject S4", "result": "−8.8", "unit": "%"}]}]}
